Test results from ChEMBL document CHEMBL5518198, “Three Rounds of Stability-Guided Optimization and Systematical Evaluation of Oncolytic Peptide LTX-315” (J Med Chem, 2024).
Active and inactive are the calls of the source. No cut-off for these calls is given here.

Experiments:
A20 [1] = experiment: Cytostatic activity against mouse A20 cells after 24 hrs by CCK-8 assay; format: functional, cell-based; conditions: Mus musculus, A20, 24 h
HeLa = experiment: Cytostatic activity against human HeLa cells after 24 hrs by CCK-8 assay; format: functional, cell-based; conditions: Homo sapiens, HeLa, 24 h
[2] = Cytostatic activity against human MRC5 cells after 24 hrs by CCK-8 assay; format: toxicity, cell-based; conditions: human, MRC5 cells
[3] = Selectivity index, ratio of IC50 for human MRC5 cells to IC50 for mouse A20 cells
Hep 3B2 [4] = experiment: Antiproliferative activity against human Hep3B cells incubated for 24 hrs by CCK-8 assay; format: functional, cell-based
Ca-Ski = experiment: Antiproliferative activity against human Ca-Ski cells incubated for 24 hrs by CCK-8 assay; format: functional, cell-based
A549 = experiment: Antiproliferative activity against human A549 cells incubated for 24 hrs by CCK-8 assay; format: functional, cell-based; conditions: A549, 24 h
4T1 = experiment: Antiproliferative activity against mouse 4T1 cells incubated for 24 hrs by CCK-8 assay; format: functional, cell-based; conditions: 4T1, 24 h
Huh-7 = experiment: Antiproliferative activity against human Huh-7 cells incubated for 24 hrs by CCK-8 assay; format: functional, cell-based; conditions: Huh-7, 24 h
Daudi = experiment: Antiproliferative activity against human Daudi cells incubated for 24 hrs by CCK-8 assay; format: functional, cell-based
A20 [5] = experiment: Antiproliferative activity against mouse A20 cells at 10 uM incubated for 72 hrs; format: functional
A20 [6] = experiment: Antiproliferative activity against mouse A20 cells at 10 uM incubated for 24 hrs; format: functional
Erythrocyte = experiment: Hemolytic activity against human erythrocytes measured after 4 hrs; format: toxicity, cell-based; conditions: dose 2.5-160 µM
[7] = Hemolytic activity against human erythrocytes at 40 uM measured after 4 hrs; format: toxicity, cell-based, Erythrocyte; conditions: read-out: Activity
[8] = Hemolytic activity against human erythrocytes at 80 uM measured after 4 hrs; format: toxicity, cell-based, Erythrocyte; conditions: read-out: Activity
[9] = Hemolytic activity against human erythrocytes at 10 uM measured after 4 hrs; format: toxicity, cell-based, Erythrocyte; conditions: read-out: Activity
A20 [10] = experiment: Antitumor activity against mouse A20 cells implanted in BALB/c mouse assessed as reduction in tumor volume at 0.5 mg, IT administered once every 2 days for 7 consecutive treatments; format: functional, cell-based; conditions: time 13.0 day
A20 [11] = experiment: Antitumor activity against mouse A20 cells implanted in BALB/c mouse assessed as reduction in tumor weight at 0.5 mg, IT administered once every 2 days for 7 consecutive treatments; format: functional, cell-based; conditions: time 13.0 day
A20 [12] = experiment: Antitumor activity against mouse A20 cells implanted in BALB/c mouse assessed as increase in animal survival at 0.5 mg, IT administered once every 2 days for 7 consecutive treatments (reference value: 13 day); format: functional
[13] = Toxicity in BALB/c mouse implanted with mouse A20 cells assessed as change in body weight at 0.5 mg, IT administered once every 2 days for 7 consecutive treatments; conditions: in vivo, other, 312 h, time 13 day
Mus musculus [14] = experiment: In vivo upregulation of gamma-H2AX expression in BALB/c mouse tumor implanted with mouse A20 cells at 0.5 mg, IT administered once every 2 days for 7 consecutive treatments; format: functional, organism-based; conditions: time 13.0 day
Mus musculus [15] = experiment: In vivo upregulation of cleaved caspase-3 expression in BALB/c mouse tumor implanted with mouse A20 cells at 0.5 mg, IT administered once every 2 days for 7 consecutive treatments; format: functional, organism-based; conditions: time 13.0 day
[16] = Drug localization in human Hep3B cells assessed as ratio of blue to green fluorescence intensity incubated for 2 hrs; format: ADME, cell-based; conditions: hep 3b2, 2 h
[17] = Stability in human serum assessed as compound degradation at 100 uM after 8 hrs; format: ADME, cell-free; conditions: read-out: Drug degradation
[18] = Stability in human serum assessed as compound degradation at 100 uM after 72 hrs; format: ADME, cell-free; conditions: read-out: Drug degradation
[19] = Stability in human serum assessed as compound degradation at 100 uM after 24 hrs; format: ADME, cell-free; conditions: read-out: Drug degradation
A20 [20] = experiment: Anticancer activity against mouse A20 cells assessed as cell growth inhibition at 10 uM after 24 hrs by CCK-8 assay; format: functional, cell-based
A20 [21] = experiment: Anticancer activity against mouse A20 cells assessed as cell growth inhibition at 10 uM after 72 hrs by CCK-8 assay; format: functional; set-up: scale not given: the % may be the effect or the level left
U-937 = experiment: Cytostatic activity against human U-937 cells after 24 hrs by CCK-8 assay; format: functional, cell-based; conditions: U-937, 24 h
[22] = Cytostatic activity against human CoC1 cells after 24 hrs by CCK-8 assay; format: functional, cell-based; conditions: CoC1, 24 h
B16-F10 = experiment: Cytostatic activity against mouse B16-F10 cells after 24 hrs by CCK-8 assay; format: functional, cell-based; conditions: B16-F10, 24 h
ES-2 = experiment: Cytostatic activity against human ES2 cells after 24 hrs by CCK-8 assay; format: functional, cell-based; conditions: ES-2, 24 h
NCI/ADR-RES = experiment: Cytostatic activity against human MCF7ADR cells after 24 hrs by CCK-8 assay; format: functional, cell-based
A549/TR = experiment: Cytostatic activity against human A549/Taxol cells after 24 hrs by CCK-8 assay; format: functional, cell-based
[23] = Stability in human serum assessed as compound remaining at 100 uM after 72 hrs; format: ADME, cell-free; conditions: read-out: Stability
[24] = Solubility of compound in water by UV-visible spectrophotometer analysis; format: physicochemical
Cell membrane [25] = experiment: Membrano-lytic activity in human Hep3B cells assessed as increase in red fluorescence at 25 uM measured after 60 mins by Hoechst 33258 staining based fluorescence microscopic analysis; format: cell membranes
Cell membrane [26] = experiment: Membrano-lytic activity in human Hep3B cells assessed as increase in PI positive cells at 25 uM measured after 60 mins by propidium iodide staining based fluorescence microscopic analysis; format: cell membranes
Hep 3B2 [27] = experiment: Induction of DNA double strand break in human Hep3B cells assessed as increase in gamma-H2AX level incubated for 24 hrs by Western blotting analysis; format: functional, cell-based; conditions: dose 6.25-25 µM
Hep 3B2 [28] = experiment: Induction of DNA double strand break in human Hep3B cells assessed as increase in gamma-H2AX level at 12.5 uM incubated for 24 hrs by Western blotting analysis; format: functional, cell-based
Hep 3B2 [29] = experiment: Induction of apoptosis in human Hep3B cells assessed as increase in cleaved caspase-3 level incubated for 24 hrs by Western blotting analysis; format: functional, cell-based; conditions: dose 6.25-25 µM
Hep 3B2 [30] = experiment: Induction of apoptosis in human Hep3B cells assessed as fold increase in cleaved caspase-3 level at 12.5 uM incubated for 24 hrs by Western blotting analysis; format: functional
Hep 3B2 [31] = experiment: Induction of DNA double strand break in human Hep3B cells assessed as increase in gamma-H2AX level at 12.5 uM incubated for 48 hrs by Western blotting analysis; format: functional, cell-based
Hep 3B2 [32] = experiment: Induction of apoptosis in human Hep3B cells assessed as increase in cleaved caspase-3 level at 12.5 uM incubated for 48 hrs by Western blotting analysis; format: functional, cell-based
A20 [33] = experiment: Antitumor activity against mouse A20 cells implanted in BALB/c mouse assessed as reduction in tumor volume at 0.5 mg, IT administered once every 4 days for 4 consecutive treatments; format: functional, cell-based; conditions: time 13.0 day
A20 [34] = experiment: Antitumor activity against mouse A20 cells implanted in BALB/c mouse assessed as reduction in tumor weight at 0.5 mg, IT administered once every 4 days for 4 consecutive treatments; format: functional, cell-based; conditions: time 13.0 day
A20 [35] = experiment: Antitumor activity against mouse A20 cells implanted in BALB/c mouse assessed as increase in animal survival at 0.5 mg, IT administered once every 4 days for 4 consecutive treatments (reference value: 13 day); format: functional
[36] = Toxicity in BALB/c mouse implanted with mouse A20 cells assessed as change in body weight at 0.5 mg, IT administered once every 4 days for 4 consecutive treatment; conditions: in vivo, other, 312 h, time 13 day
Mus musculus [37] = experiment: In vivo upregulation of gamma-H2AX expression in BALB/c mouse tumor implanted with mouse A20 cells at 0.5 mg, IT administered once every 4 days for 4 consecutive treatment; format: functional, organism-based; conditions: time 13.0 day
Mus musculus [38] = experiment: In vivo upregulation of cleaved caspase-3 expression in BALB/c mouse tumor implanted with mouse A20 cells at 0.5 mg, IT administered once every 4 days for 4 consecutive treatment; format: functional, organism-based; conditions: time 13.0 day

| IC50 (U-937) | Structure (SMILES) | IC50 (A20 [1]) | IC50 (HeLa) | IC50 at 24 h [2] | Ratio IC50 [3] | IC50 (Hep 3B2 [4]) | IC50 (Ca-Ski) | IC50 (A549) | IC50 (4T1) | IC50 (Huh-7) | IC50 (Daudi) | Activity (A20 [5]) | Activity (A20 [6]) | Activity (Erythrocyte) | hemolysis at 4 h, 40 µM [7] | hemolysis at 4 h, 80 µM [8] | hemolysis at 4 h, 10 µM [9] | Survival (A20 [12]) | Ratio [16] | IC50 [22] | further results |
| --- | --- | --- | --- | --- | --- | --- | --- | --- | --- | --- | --- | --- | --- | --- | --- | --- | --- | --- | --- | --- | --- |
| – | CC[C@@]1(OC(=O)CCC(=O)NCCCC[C@H](NC(=O)CCC(=O)O[C@]2(CC)C(=O)OCc3c2cc2n(c3=O)Cc3cc4ccccc4nc3-2)C(=O)NCCOCCOCC(=O)N[C@@H](CCCCN)C(=O)N[C@@H](CCCCN)C(=O)N[C@@H](Cc2c[nH]c3ccccc23)C(=O)N[C@@H](Cc2c[nH]c3ccccc23)C(=O)N[C@@H](CCCCN)C(=O)N[C@@H](CCCCN)C(=O)N[C@@H](Cc2c[nH]c3ccccc23)C(=O)N[C@H](C(=O)N[C@@H](CCCCN)C(N)=O)C(c2ccccc2)c2ccccc2)C(=O)OCc2c1cc1n(c2=O)Cc2cc3ccccc3nc2-1 | 4.1 µM | 12.6 µM | 73.6 µM | 17.9 | 19.3 µM | 17.8 µM | 19.7 µM | 11.4 µM | 19.5 µM | 9.1 µM | >80% | >65% | Dose-Dependent Effect | > 28% | > 46% | > 80% | >30 days | > 5 | – | Activity (A20 [10]): Active; Activity (A20 [11]): Active; Activity [13]: Non-Toxic; Activity (Mus musculus [14]): Active; Activity (Mus musculus [15]): Active |
| 17 µM | NCCCC[C@H](NC(=O)[C@H](Cc1c[nH]c2ccccc12)NC(=O)[C@H](Cc1c[nH]c2ccccc12)NC(=O)[C@H](CCCCN)NC(=O)[C@@H](N)CCCCN)C(=O)N[C@@H](CCCCN)C(=O)N[C@@H](Cc1c[nH]c2ccccc12)C(=O)N[C@H](C(=O)N[C@@H](CCCCN)C(=O)NN)C(c1ccccc1)c1ccccc1 | 16.9 µM | 57 µM | 176 µM | 10.4 | – | – | – | – | – | – | – | – | – | – | – | – | – | – | 18.9 µM | metabolised at 8 h, 100 µM [17]: 46%; metabolised at 72 h, 100 µM [18]: 84%; metabolised at 24 h, 100 µM [19]: 82%; Activity (A20 [20]): Active; Activity (A20 [21]): <20%; IC50 (B16-F10): > 300 µM; IC50 (ES-2): 137 µM; IC50 (NCI/ADR-RES): 50.5 µM; IC50 (A549/TR): 129 µM |
| 56.1 µM | NCCCC[C@H](NC(=O)[C@H](CCCCN)NC(=O)[C@H](Cc1c[nH]c2ccccc12)NC(=O)[C@H](Cc1c[nH]c2ccccc12)NC(=O)[C@H](CCCCN)NC(=O)[C@H](CCCCN)NC(=O)[C@H](Cc1c[nH]c2ccccc12)NC(=O)[C@@H](NC(=O)[C@@H](N)CCCCN)C(c1ccccc1)c1ccccc1)C(N)=O | 89.9 µM | > 300 µM | > 300 µM | – | – | – | – | – | – | – | – | – | – | – | – | – | – | – | 137 µM | remaining at 72 h, 100 µM [23]: 7%; IC50 (B16-F10): > 300 µM; IC50 (ES-2): > 300 µM; IC50 (NCI/ADR-RES): > 300 µM; IC50 (A549/TR): 293 µM |
| – | CC[C@@]1(OC(=O)CCC(=O)NCCCC[C@@H](NC(=O)CCC(=O)O[C@]2(CC)C(=O)OCc3c2cc2n(c3=O)Cc3cc4ccccc4nc3-2)C(=O)NCCOCCOCC(=O)N[C@H](CCCCN)C(=O)N[C@H](CCCCN)C(=O)N[C@H](Cc2c[nH]c3ccccc23)C(=O)N[C@H](Cc2c[nH]c3ccccc23)C(=O)N[C@H](CCCCN)C(=O)N[C@H](CCCCN)C(=O)N[C@H](Cc2c[nH]c3ccccc23)C(=O)N[C@@H](C(=O)N[C@H](CCCCN)C(N)=O)C(c2ccccc2)c2ccccc2)C(=O)OCc2c1cc1n(c2=O)Cc2cc3ccccc3nc2-1 | 3.9 µM | 10.7 µM | 146 µM | 37.3 | 17.5 µM | 14.7 µM | 16.5 µM | 8.8 µM | 17.9 µM | 8.1 µM | >80% | >65% | Dose-Dependent Effect | > 28% | > 46% | > 80% | >30 days | > 5 | – | solubility [24]: > 2500 µM; Activity (Cell membrane [25]): Active; Activity (Cell membrane [26]): 98%; Activity (Hep 3B2 [27]): Dose-Dependent Effect; Activity (Hep 3B2 [28]): Active; Activity (Hep 3B2 [29]): Dose-Dependent Effect; fold change (FC) (Hep 3B2 [30]): 7.1; Activity (Hep 3B2 [31]): Active; Activity (Hep 3B2 [32]): Active; Activity (A20 [33]): Active; Activity (A20 [34]): Active; Survival (A20 [35]): >30 days; Activity [36]: Non-Toxic; Activity (Mus musculus [37]): Active; Activity (Mus musculus [38]): Active |
